Each compound was assayed against JNK3 (Homo sapiens, UniProt P53779) (assay: JNK3 SPA assay (phosphorylation of GST-c-Jun)). Details: Scintillation proximity assay, GST-c-Jun substrate, 3.33 μM ATP, 30 minutes at room temperature.
Assay type: biochemical
Procedure: JNK1, JNK2, JNK3—SPA Assay • 1. Compound is dissolved in DMSO to a convenient concentration and this is diluted in 10% DMSO to a five times concentrate of the desired starting concentration (frequently 1:100). • 2. 10 μl of 500 mM EDTA is added to alternative wells of the Opti-plate row, which will receive kinase reaction plus DMSO. This creates the negative control. • 3. For the JNK2 and JNK3 assay, compounds are prepared in six 2-fold dilutions with water and each concentration is tested in duplicate. For the JNK1 assay compounds are prepared in four 5-fold dilutions with water which are tested in triplicate. Controls are treated identically. • 4. 20 μl per well of each compound concentration is transferred to an Opti-plate, in duplicate. • 5. 30 μl (JNK2/3 SPA) or 50 μl (JNK1 SPA) of substrate solution (25 mM HEPES pH 7.5, 10 mM magnesium acetate with 3.33 μM ATP (JNK2/3) or 2 μM ATP (JNK1), approximately 7.5 kBq [γ-^33P] ATP, GST-c-Jun, in water) is added to each well. • 6. 50 μl (JNK2/3 SPA) or 30 μl (JNK1 SPA) of kinase solution (JNK in 25 mM HEPES pH 7.5, 10 mM Mg Acetate) is added to each well.
• 7. The plate is incubated for 30 minutes at room temperature. • 8. 100 μl of bead/stop solution is added to each well (5 mg/ml glutathione-PVT-SPA beads, 40 mM ATP in PBS). • 9. Plates are sealed and incubated for 30 minutes at room temperature, centrifuged for 10 minutes at 2500 g and counted. • 10. The IC50 values are calculated as the concentration of the compound being tested at which the phosphorylation of c-Jun is decreased to 50% of the control value.

Sequence of JNK3 (P53779 whole entry): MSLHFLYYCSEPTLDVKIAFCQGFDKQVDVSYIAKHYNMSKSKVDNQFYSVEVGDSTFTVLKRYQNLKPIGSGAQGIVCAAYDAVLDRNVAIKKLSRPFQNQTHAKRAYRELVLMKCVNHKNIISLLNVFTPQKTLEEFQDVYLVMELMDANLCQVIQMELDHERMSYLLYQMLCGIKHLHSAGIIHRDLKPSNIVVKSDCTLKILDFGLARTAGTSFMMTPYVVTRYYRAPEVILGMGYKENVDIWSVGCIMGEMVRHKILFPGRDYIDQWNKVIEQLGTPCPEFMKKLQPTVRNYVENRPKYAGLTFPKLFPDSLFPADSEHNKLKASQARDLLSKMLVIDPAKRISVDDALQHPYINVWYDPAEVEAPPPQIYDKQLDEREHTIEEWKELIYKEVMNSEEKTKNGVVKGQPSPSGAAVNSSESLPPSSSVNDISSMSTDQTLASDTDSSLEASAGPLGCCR

| SMILES | IC50 [nM] |
| --- | --- |
| O=C(NCCc1c[nH]c2ccccc12)c1cnc2[nH]cc(-c3ccoc3)c2c1 | < 500 |
| O=C(c1cnc2[nH]cc(-c3ccoc3)c2c1)N1CCCC1 | < 500 |

The next lines start with the values.

| IC50 [nM] | SMILES |
| --- | --- |
| < 1000 | O=C(Nc1ccc2[nH]ccc2c1)c1cnc2[nH]cc(-c3ccoc3)c2c1 |
| < 500 | O=C(c1cnc2[nH]cc(-c3ccoc3)c2c1)N1CCc2ccccc2C1 |
| < 500 | CN(C)c1ccc(C(=O)c2cnc3[nH]cc(-c4cnn(C)c4)c3c2)cc1 |

Reference: patent US20110166173A1, “3,5-DISUBSTUTUTED 1H-PYRROLO [2,3-B] PYRIDINES AS JNK INHIBITORS” (Eisai Co., Ltd., priority 2004, published 2011)
